Experimental data taken from patent US20060099216A1, “Peptide delivery” (Biovation Limited, priority 1994, published 2006).

Test system: mouse Sp2/0 cells
Experiment: CTL assay: 51Cr release from target Sp2/0 cells treated with antibody fragments or peptide, with p53 peptide-specific CTLs
Format: cell-based
Conditions: Sp2/0 target cells, treated 4 hours at 37° C. with antibody fragment dilutions or 10 μg/ml peptide

## KYICNSSCM (p53 CTL reactive peptide) [p53 peptide only]
effector:target 5:1
  % Specific 51Cr Release at E/T Ratio 5:1: 41%
effector:target 10:1
  % Specific 51Cr Release at E/T Ratio 10:1: 57%
effector:target 20:1
  % Specific 51Cr Release at E/T Ratio 20:1: 46%
